Results: article PMC9226124, “Macrocycle-stabilization of its interaction with 14-3-3 increases plasma membrane localization and activity of CFTR” (Nature Communications, 2022)
Values joined by “and” are separate entries in the source; they are usually repeats but may differ in a detail not shown here. Equal entries are not always repeated. Values belong to the molecule of their own block, whether it stands above or below them.

How the values were obtained:
[1] = target: T1, 14-3-3β/CFTRpS753pS768 complex (Homo sapiens, UniProt P13569+P31946); assay: FP assay, 14-3-3β titration at constant compound concentration (apparent KD); format: binding; settings: for FP signal, 14-3-3β titration: replicates
T1 construct: His6 (cleaved yes); made in house; peptide synthetic
T1 sequence (P31946 whole entry): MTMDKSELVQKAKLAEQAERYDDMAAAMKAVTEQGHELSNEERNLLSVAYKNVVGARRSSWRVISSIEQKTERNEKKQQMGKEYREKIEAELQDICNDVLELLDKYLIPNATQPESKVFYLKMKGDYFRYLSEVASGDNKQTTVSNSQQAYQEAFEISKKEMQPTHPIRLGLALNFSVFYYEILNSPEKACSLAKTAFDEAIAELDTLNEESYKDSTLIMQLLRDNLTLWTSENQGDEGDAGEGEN
T1 sequence (P13569 747-774 limits assumed): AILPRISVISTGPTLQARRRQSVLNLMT

[2] = target: T2, 3HA-tagged F508del-CFTR in BHK cells (Homo sapiens, UniProt P13569, DEL508-508); assay: CFTR trafficking assay (surface expression); format: cell-based, hamster; settings: for F508del-CFTR surface expression signal (Fig5a): individual replicates
T2 construct: expressed in transfected cells; host or cells: baby hamster kidney (BHK) cells (Carlile et al. 2007)
T2 sequence (P13569 with tags, fused parts or gaps DEL508-508): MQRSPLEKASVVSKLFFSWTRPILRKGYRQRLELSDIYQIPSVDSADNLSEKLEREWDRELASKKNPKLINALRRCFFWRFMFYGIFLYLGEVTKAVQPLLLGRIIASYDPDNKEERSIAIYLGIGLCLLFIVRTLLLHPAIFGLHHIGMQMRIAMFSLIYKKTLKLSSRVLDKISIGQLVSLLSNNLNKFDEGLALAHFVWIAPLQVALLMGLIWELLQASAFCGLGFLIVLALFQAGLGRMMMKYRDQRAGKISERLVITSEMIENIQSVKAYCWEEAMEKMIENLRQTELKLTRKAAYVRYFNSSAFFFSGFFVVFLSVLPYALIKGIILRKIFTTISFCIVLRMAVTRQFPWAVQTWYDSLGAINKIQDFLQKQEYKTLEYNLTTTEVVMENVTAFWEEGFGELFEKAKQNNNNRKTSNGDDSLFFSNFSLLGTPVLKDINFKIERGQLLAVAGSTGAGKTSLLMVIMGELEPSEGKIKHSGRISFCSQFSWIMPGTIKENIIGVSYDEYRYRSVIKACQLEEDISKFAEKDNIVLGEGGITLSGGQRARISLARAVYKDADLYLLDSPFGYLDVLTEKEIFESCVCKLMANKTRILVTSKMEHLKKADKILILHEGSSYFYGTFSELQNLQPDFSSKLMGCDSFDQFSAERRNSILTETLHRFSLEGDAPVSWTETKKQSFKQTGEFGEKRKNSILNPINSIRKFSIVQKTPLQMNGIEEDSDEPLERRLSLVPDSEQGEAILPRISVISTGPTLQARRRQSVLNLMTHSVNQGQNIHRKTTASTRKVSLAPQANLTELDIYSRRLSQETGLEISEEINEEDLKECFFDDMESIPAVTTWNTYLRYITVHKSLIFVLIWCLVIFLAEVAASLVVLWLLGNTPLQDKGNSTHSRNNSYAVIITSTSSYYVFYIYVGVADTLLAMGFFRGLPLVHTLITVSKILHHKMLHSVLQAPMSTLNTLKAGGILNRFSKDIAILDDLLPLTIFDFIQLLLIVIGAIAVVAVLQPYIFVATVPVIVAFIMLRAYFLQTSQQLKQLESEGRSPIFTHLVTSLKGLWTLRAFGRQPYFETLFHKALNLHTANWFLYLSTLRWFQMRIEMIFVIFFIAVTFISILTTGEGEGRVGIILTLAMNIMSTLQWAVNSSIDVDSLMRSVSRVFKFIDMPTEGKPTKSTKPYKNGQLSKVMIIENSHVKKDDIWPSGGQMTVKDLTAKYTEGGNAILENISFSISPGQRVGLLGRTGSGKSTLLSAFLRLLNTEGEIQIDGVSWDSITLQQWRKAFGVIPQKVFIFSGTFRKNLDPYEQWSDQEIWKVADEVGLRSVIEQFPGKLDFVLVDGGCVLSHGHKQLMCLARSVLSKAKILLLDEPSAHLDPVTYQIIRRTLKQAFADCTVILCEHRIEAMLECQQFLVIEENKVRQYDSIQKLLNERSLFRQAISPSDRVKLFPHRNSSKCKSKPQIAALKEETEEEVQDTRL
Method in brief: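 BHK cells expressing 3HA-tagged F508del-CFTR treated 24 h with 10 μM compound (1% DMSO final), fixed, stained with anti-HA plus FITC-conjugated anti-mouse IgG. Fluorescence (488/510 nm) background-subtracted and normalized to DMSO control and wt-CFTR-expressing cells.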

[3] = CY compound (100 μM), 14-3-3β concentration 0.00025 M
[4] = CY compound (100 μM), 14-3-3β concentration 0.0005 M
[5] = FC-A + CY compound, 14-3-3β concentration 0.00025 M
[6] = FC-A + CY compound, 14-3-3β concentration 0.0005 M
[7] = CY compound (100 μM), 14-3-3β concentration 1.5625e-5 M
[8] = CY compound (100 μM), 14-3-3β concentration 3.125e-5 M
[9] = CY compound (100 μM), 14-3-3β concentration 6.25e-5 M
[10] = CY compound (100 μM), 14-3-3β concentration 0.000125 M
[11] = FC-A + CY compound, 14-3-3β concentration 1.5625e-5 M
[12] = FC-A + CY compound, 14-3-3β concentration 3.125e-5 M
[13] = FC-A + CY compound, 14-3-3β concentration 6.25e-5 M
[14] = FC-A + CY compound, 14-3-3β concentration 0.000125 M

FP signal, 14-3-3β titration ([1]; 14-3-3β 1.90735e-9 M, FC-A + CY compound): 2 and 4 and 0 | FP signal, 14-3-3β titration ([1]; 14-3-3β 1.90735e-9 M, compound 100 μM): -2 | FP signal, 14-3-3β titration ([1]; 14-3-3β 3.8147e-9 M, FC-A + CY compound): 2 and 1 and -1 | FP signal, 14-3-3β titration ([1]; 14-3-3β 3.8147e-9 M, compound 100 μM): 2 and 3 and 1 | FP signal, 14-3-3β titration ([1]; 14-3-3β 7.62939e-9 M, FC-A + CY compound): 2 and 1 and 0 | FP signal, 14-3-3β titration ([1]; 14-3-3β 7.62939e-9 M, compound 100 μM): 1 (2×) and 4 | FP signal, 14-3-3β titration ([1]; 14-3-3β 1.52588e-8 M, FC-A + CY compound): 7 and 4 and 6 | FP signal, 14-3-3β titration ([1]; 14-3-3β 1.52588e-8 M, compound 100 μM): 5 (2×) and 3 | FP signal, 14-3-3β titration ([1]; 14-3-3β 3.05176e-8 M, FC-A + CY compound): 3 and 4 and 5 | FP signal, 14-3-3β titration ([1]; 14-3-3β 3.05176e-8 M, compound 100 μM): 3 and 1 (2×) | FP signal, 14-3-3β titration ([1]; 14-3-3β 6.10352e-8 M, FC-A + CY compound): 6 and 9 (2×) | FP signal, 14-3-3β titration ([1]; 14-3-3β 6.10352e-8 M, compound 100 μM): 5 and 2 (2×) | FP signal, 14-3-3β titration ([1]; 14-3-3β 1.2207e-7 M, FC-A + CY compound): 10 and 5 and 8 | FP signal, 14-3-3β titration ([1]; 14-3-3β 1.2207e-7 M, compound 100 μM): 3 and 6 and 2 | FP signal, 14-3-3β titration ([1]; 14-3-3β 2.44141e-7 M, FC-A + CY compound): 16 and 15 and 11 | FP signal, 14-3-3β titration ([1]; 14-3-3β 2.44141e-7 M, compound 100 μM): 7 and 3 and 1 | FP signal, 14-3-3β titration ([1]; 14-3-3β 4.88281e-7 M, FC-A + CY compound): 18 and 25 and 20 | FP signal, 14-3-3β titration ([1]; 14-3-3β 4.88281e-7 M, compound 100 μM): 9 and 4 (2×) | FP signal, 14-3-3β titration ([1]; 14-3-3β 9.76563e-7 M, FC-A + CY compound): 36 and 40 and 38 | FP signal, 14-3-3β titration ([1]; 14-3-3β 9.76563e-7 M, compound 100 μM): 9 and 11 and 10 | FP signal, 14-3-3β titration ([1]; 14-3-3β 1.95313e-6 M, FC-A + CY compound): 52 and 57 and 55 | FP signal, 14-3-3β titration ([1]; 14-3-3β 1.95313e-6 M, compound 100 μM): 11 (2×) and 13 | FP signal, 14-3-3β titration ([1]; 14-3-3β 3.90625e-6 M, FC-A + CY compound): 75 and 77 and 73 | FP signal, 14-3-3β titration ([1]; 14-3-3β 3.90625e-6 M, compound 100 μM): 25 and 27 and 24 | FP signal, 14-3-3β titration ([1]; 14-3-3β 7.8125e-6 M, FC-A + CY compound): 105 (2×) and 102 | FP signal, 14-3-3β titration ([1]; 14-3-3β 7.8125e-6 M, compound 100 μM): 44 and 43 and 34 | FP signal, 14-3-3β titration ([1]; 14-3-3β 1.5625e-5 M, FC-A + CY compound): 123 and 125 and 121 | FP signal, 14-3-3β titration ([1]; 14-3-3β 1.5625e-5 M, compound 100 μM): 59 and 58 and 51 | FP signal, 14-3-3β titration ([1]; 14-3-3β 3.125e-5 M, FC-A + CY compound): 141 (2×) and 139 | FP signal, 14-3-3β titration ([1]; 14-3-3β 3.125e-5 M, compound 100 μM): 76 (2×) and 79 | FP signal, 14-3-3β titration ([1]; 14-3-3β 6.25e-5 M, FC-A + CY compound): 152 and 151 and 156 | FP signal, 14-3-3β titration ([1]; 14-3-3β 6.25e-5 M, compound 100 μM): 97 (2×) and 95 | FP signal, 14-3-3β titration ([1]; 14-3-3β 0.000125 M, FC-A + CY compound): 161 and 159 and 162 | FP signal, 14-3-3β titration ([1]; 14-3-3β 0.000125 M, compound 100 μM): 113 and 114 and 116 | Fluorescence polarization signal, 14-3-3β titration [1, 3]: 132 and 131 and 127 | Fluorescence polarization signal, 14-3-3β titration [1, 4]: 146 and 152 | Fluorescence polarization signal, 14-3-3β titration [1, 5]: 166 and 162 | Fluorescence polarization signal, 14-3-3β titration [1, 6]: 175 and 173 and 177
Compound: N=C(N)NCCCC1NC(=O)C(CCC(N)=O)NC(=O)C(CCCNC(=N)N)NC(=O)C2Cc3ccccc3CN2Cc2cccc(c2)-c2ccccc2CNC1=O (centres unmarked) [CY007493]
F508del-CFTR surface expression signal (Fig5a) [2]: 225.716 and 325.901 and 303.406 and 383.168

Fluorescence polarization signal, 14-3-3β titration ([1]; CY compound (100 μM), 14-3-3β concentration 3.05176e-8 M): 2.667 | Fluorescence polarization signal, 14-3-3β titration ([1]; CY compound (100 μM), 14-3-3β concentration 6.10352e-8 M): 5.667 and 3.667 and 4.667 | Fluorescence polarization signal, 14-3-3β titration ([1]; CY compound (100 μM), 14-3-3β concentration 2.44141e-7 M): 10.6667 and 8.667 | Fluorescence polarization signal, 14-3-3β titration ([1]; CY compound (100 μM), 14-3-3β concentration 4.88281e-7 M): 20.6667 and 17.6667 and 18.6667 | Fluorescence polarization signal, 14-3-3β titration ([1]; CY compound (100 μM), 14-3-3β concentration 9.76563e-7 M): 35.6667 and 31.6667 and 32.6667 | Fluorescence polarization signal, 14-3-3β titration ([1]; CY compound (100 μM), 14-3-3β concentration 1.95313e-6 M): 46.6667 and 44.6667 and 41.6667 | Fluorescence polarization signal, 14-3-3β titration ([1]; CY compound (100 μM), 14-3-3β concentration 3.90625e-6 M): 61.6667 and 57.6667 and 56.6667 | Fluorescence polarization signal, 14-3-3β titration ([1]; CY compound (100 μM), 14-3-3β concentration 7.8125e-6 M): 73.6667 and 74.6667 and 72.6667 | Fluorescence polarization signal, 14-3-3β titration [1, 7]: 84.6667 and 82.6667 and 83.6667 | Fluorescence polarization signal, 14-3-3β titration [1, 8]: 94.6667 and 91.6667 and 92.6667 | Fluorescence polarization signal, 14-3-3β titration [1, 9]: 107.667 and 108.667 | Fluorescence polarization signal, 14-3-3β titration [1, 10]: 115.667 and 120.667 and 113.667 | Fluorescence polarization signal, 14-3-3β titration [1, 3]: 128.667 and 129.667 | Fluorescence polarization signal, 14-3-3β titration [1, 4]: 146.667 and 147.667 | Fluorescence polarization signal, 14-3-3β titration ([1]; FC-A + CY compound, 14-3-3β concentration 7.62939e-9 M): 2 and 1 | Fluorescence polarization signal, 14-3-3β titration ([1]; FC-A + CY compound, 14-3-3β concentration 6.10352e-8 M): 9 and 13 and 12 | Fluorescence polarization signal, 14-3-3β titration ([1]; FC-A + CY compound, 14-3-3β concentration 1.2207e-7 M): 23 | Fluorescence polarization signal, 14-3-3β titration ([1]; FC-A + CY compound, 14-3-3β concentration 2.44141e-7 M): 39 and 43 and 40 | Fluorescence polarization signal, 14-3-3β titration ([1]; FC-A + CY compound, 14-3-3β concentration 4.88281e-7 M): 61 and 66 and 64 | Fluorescence polarization signal, 14-3-3β titration ([1]; FC-A + CY compound, 14-3-3β concentration 9.76563e-7 M): 90 and 91 | Fluorescence polarization signal, 14-3-3β titration ([1]; FC-A + CY compound, 14-3-3β concentration 1.95313e-6 M): 115 and 116 | Fluorescence polarization signal, 14-3-3β titration ([1]; FC-A + CY compound, 14-3-3β concentration 3.90625e-6 M): 131 and 135 and 137 | Fluorescence polarization signal, 14-3-3β titration ([1]; FC-A + CY compound, 14-3-3β concentration 7.8125e-6 M): 145 and 142 and 147 | Fluorescence polarization signal, 14-3-3β titration [1, 11]: 154 and 157 | Fluorescence polarization signal, 14-3-3β titration [1, 12]: 158 and 155 and 159 | Fluorescence polarization signal, 14-3-3β titration [1, 13]: 165 and 162 | Fluorescence polarization signal, 14-3-3β titration [1, 14]: 160 and 162 and 164 | Fluorescence polarization signal, 14-3-3β titration [1, 5]: 164 and 166 and 167 | Fluorescence polarization signal, 14-3-3β titration [1, 6]: 172 and 174 and 170
Compound: CN1CC(=O)NC(CCCNC(=N)N)C(=O)NC(CCC(N)=O)C(=O)NC(CCCNC(=N)N)C(=O)NCc2ccccc2-c2cccc(c2)C1 (centres unmarked) [CY007491]
F508del-CFTR trafficking towards the plasma membrane ([2]; BHK cells, 24 h, 10 μM compound): increase of F508del-CFTR trafficking towards the plasma membrane | F508del-CFTR surface expression signal (Fig5a) [2]: 1616.06 and 1494.72 and 1508.75 and 1545.64

Compound: N=C(N)NCCCC1NC(=O)C(CCC(N)=O)NC(=O)C(CCCNC(=N)N)NC(=O)C2CCCN2Cc2cccc(c2)-c2ccccc2CNC1=O (centres unmarked) [CY007458]
Fluorescence polarization signal, 14-3-3β titration [1, 7]: 76.6667 | Fluorescence polarization signal, 14-3-3β titration [1, 8]: 83.6667 and 85.6667 | Fluorescence polarization signal, 14-3-3β titration [1, 9]: 102.667 and 98.6667 and 101.667 | Fluorescence polarization signal, 14-3-3β titration [1, 10]: 115.667 and 111.667 and 118.667 | Fluorescence polarization signal, 14-3-3β titration [1, 3]: 131.667 and 136.667 and 132.667 | Fluorescence polarization signal, 14-3-3β titration [1, 4]: 153.667 and 151.667 and 152.667 | Fluorescence polarization signal, 14-3-3β titration [1, 11]: 140.333 and 143.333 and 144.333 | Fluorescence polarization signal, 14-3-3β titration [1, 12]: 147.333 and 148.333 and 150.333 | Fluorescence polarization signal, 14-3-3β titration [1, 13]: 156.333 | Fluorescence polarization signal, 14-3-3β titration [1, 14]: 159.333 and 161.333 and 160.333 | Fluorescence polarization signal, 14-3-3β titration [1, 5]: 164.333 and 167.333 | Fluorescence polarization signal, 14-3-3β titration [1, 6]: 175.333 and 176.333 and 172.333 | F508del-CFTR surface expression signal (Fig5a) [2]: 354.117 and 244.376 and 379.817 and 293.603
